Assay results reported in PMC5309800, “Natural amines inhibit activation of human plasmacytoid dendritic cells through CXCR4 engagement” (Nature Communications, 2017).

Experiments:
[1] = target: T1, CXC chemokine receptor 4 (CXCR4) (Homo sapiens, UniProt P61073); assay: Tag-lite TR-FRET competition with CXCL12-red on HALO-CXCR4 cells; also inhibits […]5 antibody binding on Jurkat cells; format: cell-based
[2] = target: T1, CXC chemokine receptor 4 (CXCR4); assay: cell-based

T1 sequence (P61073 whole entry): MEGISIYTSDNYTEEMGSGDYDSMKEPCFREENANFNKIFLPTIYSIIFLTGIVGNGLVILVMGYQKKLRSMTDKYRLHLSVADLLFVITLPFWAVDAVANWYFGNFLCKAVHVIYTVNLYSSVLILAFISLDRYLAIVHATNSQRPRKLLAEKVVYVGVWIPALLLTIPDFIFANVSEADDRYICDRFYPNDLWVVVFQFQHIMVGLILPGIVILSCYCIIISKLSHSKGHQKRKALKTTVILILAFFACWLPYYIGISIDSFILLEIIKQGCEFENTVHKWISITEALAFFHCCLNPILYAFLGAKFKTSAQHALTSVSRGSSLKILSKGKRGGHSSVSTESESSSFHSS

Ki [2] [µM] | SMILES | Ki [1] [µM]
 | NC(=NCc1ccc(Cl)cc1)SCCCc1cnc[nH]1 [CB, clobenpropit] | 1.5
~26.5 | NCCc1c[nH]cn1 [HA, histamine] | 
